The values below are quoted from earlier work in US20240374543A1, “PHARMACEUTICAL COMPOSITIONS” (priority 2021, published 2024).

For this data set the following is noted: determined by the FDA.

For the substance N-Nitrosodimethylamine [NDMA], the “acceptable daily intake limit of NDMA” value is on record as 96 nanogram per day.
